Measured values reported in patent publication US5808062A, “Pyrone derivatives as protease inhibitors and antiviral agents” (Warner-Lambert Company, priority 1994, dated 1998).
In brackets after ≈: the same amount, converted by molar mass.

Assays:
[1] = test system: Enterococcus foecalis MGH2; test: Antibacterial activity, microtitration dilution method; type: cell-based; conditions: read-out: Antibacterial Activity, minimum inhibitory concentration (MIC)
From the text: (§1) The compounds of the invention display antibacterial activity when tested by the microtitration dilution method as described in Heifetz, et al., Antimicr. Agents. & Chemoth. 6:124 (1974) which is incorporated herein by reference.
(§2) By use of the above referenced method, the following minimum inhibitory concentration values (MICs in μg/mL) were obtained for representative compounds of the invention vs. clinically relevant gram positive pathogens which have become highly resistant to conventional therapy in recent years.

[2] = test system: Staphylococcus aureus H228; test: as above; type: cell-based; conditions: read-out: Antibacterial Activity, minimum inhibitory concentration (MIC)
From the text: as §1, §2

[3] = test system: Staphylococcus aureus UC-76; test: as above; type: cell-based; conditions: UC76, read-out: Antibacterial Activity, minimum inhibitory concentration (MIC)
From the text: as §1, §2

[4] = test system: Streptococcus pneumonia 5V-1; test: as above; type: cell-based; conditions: Streptococcus pneumoniae, 5V1, read-out: Antibacterial Activity, minimum inhibitory concentration (MIC)
From the text: as §1, §2

[5] = test system: Streptococcus pyogenes C203; test: as above; type: cell-based; conditions: read-out: Antibacterial Activity, minimum inhibitory concentration (MIC)
From the text: as §1, §2

HIV-I Protease = target: T1, HIV-I Protease (Human immunodeficiency virus type 1 group M subtype B, UniProt P04585); test: HIV Protease Inhibition (undecapeptide substrate hydrolysis, HPLC); type: biochemical; conditions: averaged; substrate 40 μM, 37° C., pH 4.7 DTT buffer, 5 minutes; read-out: 50% Inhibition Concentration (Averaged)
T1 construct: HIV-I Protease: The enzyme is obtained from Bachem Bioscience Inc; purchased Bachem Bioscience Inc
Procedure: DTT Buffer: 1.0 mM dithiothreitol (DTT) was prepared fresh daily in 0.1% polyethylene glycol (mw 8000) 80 mM NaOAc, 160 mM NaCl, 1.0 mM EDTA, and brought to pH 4.7 with HCl.
HIV-I Protease: The enzyme is obtained from Bachem Bioscience Inc. The undiluted enzyme is thawed from -80° C. and diluted 50-fold with DTT buffer. The solution is always kept at 0° C. on ice water and used in the experiment within 20 minutes after thawing.
Enzyme Substrate: Substrate III from Bachem Bioscience Inc. is the undecapeptide H-His-Lys-Ala-Arg-Val-Leu-p-Nitrophenylalanine-Glu-Ala-Norleucine-Ser-NH2 (>97% purity). A 200 μM stock solution in DTT buffer is prepared and stored on ice. Substrate solution is prepared fresh daily.
Test Compound: 10 mM inhibitor (I) in dimethyl sulfoxide (DMSO) is diluted to 200 μM with DTT buffer. From the 200 μM stock solution is made a 10 μM stock solution with 2% DMSO in DTT buffer. The two inhibitor solutions are used to make final [I]=100, 50, 20, 10, 5, 2, 1, 0.5 and 0 μM with 2% DMSO in DTT buffer in each reaction well (total inhibitor volume of 50 μl).
To each reaction well is added 20 μl of substrate (final concentration of 40 μM), 50 μl of inhibitor (at a concentration such that final dilution will produce the test concentration) and 20 μl of DTT buffer. The reaction plate (96 wells) is incubated at 37° C. for at least 5 minutes.
10 μl of the diluted protease is added to the reaction well while the reaction plate is shaking. Once shaken for 10 seconds, the plate is returned to the heating block at 37° C. (Final reaction volume=100 μl.)
The reaction is incubated for 5 minutes at 37° C. The reaction is stopped by placing the reaction plate on the shaker and adding 20 μl of 10% trifluoroacetic acid (TFA) and shaking for 10 seconds. The amount of proteolysis is then determined by separation of noncleaved substrate and two cleaved products with reverse-phase HPLC, while measuring absorbance at 220 nm to determine the relative peak areas of the three components. The relative peak areas are used to calculate % conversion to product as a function of inhibitor concentration. The data is plotted as % Control (the ratio of % conversion in the presence and absence of inhibitor×100) versus inhibitor concentration and fit with the equation Y=100/1+(X/IC50)^A, where IC50 is the inhibitor concentration at 50% inhibition and A is the slope of the inhibition curve.

HIV = conditions: R. Nagorny et al., AIDS 1993; cited from earlier work

Row | MIC [1] [µg/mL] | MIC [2] [µg/mL] | MIC [3] [µg/mL] | MIC [4] [µg/mL] | MIC [5] [µg/mL] | SMILES | IC50 (HIV-I Protease) [nM] | inhibition of HIV infection (in words) (HIV)
1 | 50 (≈ 116 µM) | 25 (≈ 58.1 µM) | 25 (≈ 58.1 µM) | 25 (≈ 58.1 µM) | 25 (≈ 58.1 µM) | O=c1oc(-c2ccc(OCc3ccccc3)cc2)cc(O)c1SCCc1ccccc1 [Example 29, 4-Hydroxy-3-[(2-phenylethyl)thio]-6-[4-(phenylmethoxy)phenyl]-2H-pyran-2-one] | – | –
2 | – | – | – | – | – | Cc1cc(C)cc(-c2cc(O)c(Sc3ccccc3C(C)C)c(=O)o2)c1 [Example 169, 6-(3,5-Dimethylphenyl)-4-hydroxy-3-[(2-isopropylphenyl)-thio]-2H-pyran-2-one] | 15 | –
3 | – | – | – | – | – | CC(=O)CC(c1ccccc1)c1c(O)c2ccccc2oc1=O (stereo not drawn) [Warfarin, 3-(α-acetonylbenzyl)-4-hydroxycoumarin] | – | inhibiting cell-free and cell-mediated HIV infection
4 | – | – | – | – | – | CC(C)c1ccccc1Sc1c(O)cc(-c2cc(Cl)cc(Cl)c2)oc1=O [Example 193, 6-(3,5-Dichlorophenyl)-4-hydroxy-3-[(2-isopropylphenyl)thio]-2H-pyran-2-one] | 26 | –
5 | 12.5 (≈ 30.2 µM) | 6.2 (≈ 15 µM) | 6.2 (≈ 15 µM) | 6.2 (≈ 15 µM) | 6.2 (≈ 15 µM) | CC(C)c1ccccc1Sc1c(O)cc(-c2cccc(-c3ccccc3)c2)oc1=O [Example 167, 6-(1,1'-Biphen-3-yl)-4-hydroxy-3-[(2-isopropylphenyl)thio]-2H-pyran-2-one] | – | –
6 | – | – | – | – | – | O=c1oc(-c2ccc(OCCO)cc2)cc(O)c1SCCc1ccccc1 [Example 160, 4-Hydroxy-6-[4-(2-hydroxyethoxy)phenyl]-3-[(2-phenylethyl)thio]-2H-pyran-2-one] | 360 | –
7 | 100 (≈ 224 µM) | 50 (≈ 112 µM) | 50 (≈ 112 µM) | 50 (≈ 112 µM) | 50 (≈ 112 µM) | CC(C)c1ccccc1Sc1c(O)cc(-c2ccc(OCc3cccnc3)cc2)oc1=O [Example 172, 4-Hydroxy-3-[(2-isopropylphenyl)thio]-6-[4-(pyridin-3-ylmethoxy)phenyl]-2H-pyran-2-one] | – | –
8 | – | – | – | – | – | CCC(=O)Oc1cc(-c2ccccc2)oc(=O)c1SCc1ccccc1 [Example 49, 2-Oxo-6-phenyl-3-[ (phenylmethyl)thio]-2H-pyran-4-ylpropanoic acid ester] | 1600 | –
9 | 25 (≈ 72.5 µM) | 12.5 (≈ 36.3 µM) | 12.5 (≈ 36.3 µM) | 12.5 (≈ 36.3 µM) | 12.5 (≈ 36.3 µM) | O=c1oc(-c2ccccc2Cl)cc(O)c1SCc1ccccc1 [Example 2, 6-(2-chlorophenyl)-4-hydroxy-3-[(phenylmethyl)thio]-2H-pyran-2-one] | – | –
